In general, melting point refers to the temperature, or range, at which the solid turns liquid.

In the case of `CN(C)Cc1c(-c2ccc(O)cc2)[nH]c2ncnc(Nc3cccc(Cl)c3)c12`, the melting point lay within 269 to 271 °C.
As for `O=C(CCc1ccncc1)NC(Cc1c[nH]c2ccccc12)C(=O)CCc1cc(C(F)(F)F)cc(C(F)(F)F)c1` (stereo not drawn), the melting point is 108 °C.
For `N#Cc1cccc(C2=Nc3ccc(C#Cc4ccc(F)cc4F)cc3NC(=O)C2)c1` the value was 240 to 246 °C.
`Oc1ccc(-c2cocn2)cc1` gave a melting point of 148 °C.
`COC1=C(OC)C(=O)C2=C(CC(CCCCCCCCOc3ccc(Cl)cc3)C2)C1=O` displayed a melting point of 64 to 66 °C.
With `Nc1nc2c(ncn2OCCCOCP(=O)(O)O)c(=O)[nH]1` the figure was 247 to 250 °C; with `C=CCN1CC(C(=O)Nc2cc(C)nc(C)n2)CC2c3cccc4[nH]cc(c34)CC21` (stereo not drawn), 182 to 186 °C; with `NS(=O)(=O)c1cccc(C=O)c1`, 108 to 109 °C.
With `CONc1nc(Nc2ccc(C#N)cc2)nc(Oc2c(C)cc(C#N)cc2C)c1Br` the figure was 185 to 186 °C.
The molecule `CC(C)[C@H](NC(=O)OCc1cccnc1)C(=O)N[C@@H](Cc1ccccc1)[C@@H](O)[C@@H](O)[C@H](Cc1ccccc1)NC(=O)OC(C)(C)C` returned a melting point of 175 to 178 °C.
With `O=C(O)c1cc(S(=O)C(F)(F)F)c(Cl)cc1Cl` (stereo not drawn) the figure was 176 to 178 °C; with `O=c1[nH]c(CO)nc2cc3c(cc12)CCC3`, 205 to 210 °C.
With `N#CC(CC1CCCCC1)c1n[nH]c2cc(O)ccc12` (stereo not drawn) the figure was 175 °C; with `Cc1cccc(Nc2cc(Cl)nc(SCC(=O)NC(C)C)n2)c1C`, 156 to 158 °C; with `NC(=O)c1nnn(Cc2ccccc2C(F)(F)F)c1N`, 197 to 198 °C.
With `O=C(NC/C=C\COc1cc(CN2CCCCC2)ccn1)c1cc(-c2ccccc2)on1` the figure was 105 to 106 °C.
`O=C(O)CCc1ccc(C(=O)CN2CCN(c3ccncc3)CC2)cc1` displayed a melting point of 245 to 247 °C.
In turn, `CN1CCc2[nH]c3ccc4sccc4c3c2C1` yielded a melting point of 189 °C.
With `CC[C@@H](O)CC(=O)N[C@H]1CC[C@H](CCN2CCC(c3cccc4c3CCO4)CC2)CC1` the figure was 201 °C; with `CN1CC(CO)C=C2c3cccc4c3c(cn4C)CC21` (stereo not drawn), 216 to 217 °C; with `c1ccc(NCCN2CCN(c3cccc4[nH]ccc34)CC2)nc1`, 153 to 160 °C.
For `COC(=O)c1cccc(-c2nc(-c3ccc(C(F)(F)F)cc3)cs2)c1` the value was 142 to 143 °C; for `COc1nccnc1OCC(O)CN1CCC(N2CCN(c3ccccc3)C2=O)CC1` (stereo not drawn), 128 to 129 °C.
For `C=CC[C@H]1C[C@@](OS(C)(=O)=O)(C(=O)OC)C[C@@H](OC(=O)c2ccccc2)[C@@H]1O` the value was 46 to 47 °C; for `OC1C[C@H]2CN(C3=Nc4cc(Cl)ccc4Oc4ccccc43)CCN2C1` (stereo partly drawn), 90 to 92 °C; for `O=C(O)c1cn(Cc2cccc(Oc3ccccc3)c2)nc1-c1ccccc1`, 148 to 149 °C.
Take `CC(=O)NCC1CN(c2cc(F)c(N3CCN(C(=O)COC(=O)c4ccc(N(C)C)cc4)CC3)c(F)c2)C(=O)O1` (stereo not drawn): the melting point was 199 to 202 °C.
`COc1ccc(C(=O)Nc2ccc(C3(CNC(C)=O)CC3)cc2)cc1OC` returned a melting point of 204 to 206 °C.
With `CON(C)Cc1nc2c(N)nc3ccccc3c2n1CC(C)(C)O` the figure was 220 to 222 °C; with `CC1(C)CCC(C)(C)c2cc3c(cc21)CCc1c(-c2ccc(C(=O)O)cc2)ccnc1-3`, 286 to 289 °C.
For `Cc1ncn(C)c1CO`, the melting point was 125 to 127 °C.
With `COc1cc2c(cc1O)CCN(C(C)=O)C2` the figure was 139 to 140 °C; with `CCC(CN1C(=O)c2ccccc2C1=O)n1cnc(-c2cccnc2)c1` (stereo not drawn), 150 to 152 °C.
Consider `CCCNc1nc(N)nc(C)c1/C=C/C(C)(C)c1ccc(C(F)(F)F)cc1`, for which the melting point fell in the range of 140 to 141 °C.
On to `N#Cc1ccc(C(OCC2OC(n3ccc(=O)[nH]c3=O)CC2O)(c2ccccc2)c2ccccc2)cc1` (stereo not drawn), for which the melting point was 92 to 95 °C.
In the case of `CCN(CC)N(C(C)=O)c1nc2cc3nc(N(C(C)=O)N(CC)CC)sc3cc2s1`, the melting point lay within 224 to 225 °C.
With `COc1cc(C(=O)c2c[nH]c(-c3ccc(Cl)cc3)n2)cc(OC)c1OC` the figure was 193 to 195 °C; with `CSc1ccc(C2=NC[C@@H](O)[C@H](c3ccccc3)O2)cc1` (racemic), 130 °C.
With `CSc1nn2c(Cl)cc(C)nc2c1S(=O)(=O)c1ccccc1` the figure was 163 to 165 °C.
For `Cn1cc(C=CC(=O)Nc2ccc(O)cc2)c([N+](=O)[O-])n1` the value was 290 to 293 °C; for `O=c1c2c(n(-c3cccc(Cl)c3)c3ncccc13)CCN(Cc1ccccc1)C2`, 157 to 161 °C.
`COc1ccc(O)c(C2(CCCCSC)Sc3ccccc3N(C)C2=O)c1` (stereo not drawn) gave a melting point of 148 to 150 °C.
On to `COc1nnc2n1C=Cc1cc(C)ccc1C2`, for which the melting point lay within 148 to 149 °C.
For `CCN1C(=O)C(CCN2CCN(c3ccccc3OC)CC2)Sc2ccccc21` (stereo not drawn) the value was 142 to 144 °C; for `CC(=O)N(C(C)=O)C1=C(N2CCN(Cc3cc(=O)[nH]c(=O)[nH]3)CC2)C(=O)c2ccccc2C1=O`, 152 to 154 °C; for `CCCCOC(=O)c1cc(Oc2ccc3c(C(=O)Nc4cccc(C(F)(F)F)c4)cccc3c2)ccn1`, 128 to 130 °C.
In turn, `CCC1(CC)CN(c2ncc(C(=O)N(C)c3cccc(C(F)(F)F)c3)c(N)n2)C(=O)N1` came in with a melting point of 185 to 187 °C.
In the case of `O=[N+]([O-])c1cccc(S(=O)(=O)C(CCl)Sc2ccccc2)c1` (stereo not drawn), the melting point was determined as 126 °C.
For `O=P(O)(O)C(CCCc1ccc(-c2ccccc2)cc1)P(=O)(O)O` the value was 199 to 200 °C; for `O=C(CN1CCN(C(CO)C(=O)O)CCN(C(CO)C(=O)O)CCN(C(CO)C(=O)O)CC1)NCCOCCO` (stereo not drawn), 145 to 150 °C; for `Cc1ccc(C(=O)c2[nH]c3cc(Cl)ccc3c2CC(=O)O)nc1`, 235 to 238 °C.
With `CCc1nn(CC(N)=O)c(CC)c1Oc1cccc(C#N)c1` the figure was 159 to 160 °C; with `O=C1c2ccccc2C(=O)N1OCc1c[nH]cn1`, 163 to 165 °C; with `CCN(CC)Cc1nnc2n1-c1ccc(Cl)cc1C(c1ccccc1)=NC2`, 130 to 132 °C.
For `C=CCOC(=O)c1cccc(C)c1OS(=O)(=O)NC(=O)Nc1nc(C)cc(OC)n1` the value was 127 to 128 °C; for `CCCNC(=O)CCn1ccc(=O)c(O)c1`, 113 to 114 °C; for `O=C(O)c1cn(Cc2ccc(OCc3csc(-c4ccccc4)n3)cc2)nc1-c1cccs1`, 187 to 188 °C.
Molecule `CC(C)Cn1nc(-c2ccc(C(F)(F)F)cc2)cc(C(=O)O)c1=O` displayed a melting point of 184 to 185 °C.
For `CCOC(=O)CCCNC(=O)c1ccc2c(c1)C=CC(C)(C)O2` the value was 88 to 89 °C.
`O=C(N(CCN(C(=O)C(F)(F)F)c1cccc2[nH]ccc12)Cc1ccccc1)C(F)(F)F` gave a melting point of 174 to 177 °C.
For `O[C@@H]1CCCC[C@H]1N=Cc1ccccc1` (relative stereo) the value was 86 °C.
`CCCn1cc(Cc2ccc(C(=O)O)cc2OC)c2cc(CC3CCN(CC)C3=O)ccc21` (stereo not drawn): the melting point is 94 to 99 °C.
With `COc1cccc(OC)c1Cc1c(O)ncnc1O` the figure was greater than 245 °C; with `O=C(O)c1ccc(-c2nc3ccc([N+](=O)[O-])cc3s2)cc1`, 352 to 355 °C; with `Cc1cc(=O)c2cc(N)ccc2s1`, 265 °C.
For `CC(C)n1nc(-c2nc(C(N)=O)c(N)nc2Cl)ccc1=O` the value was greater than 250 °C.
For `CC(C)(C)c1ccc(-c2ccc3nncn3n2)cc1` the value was 270 to 275 °C; for `Cc1cc(S(=O)(=O)NC(C)C)c2c(C)ccc(C(C)C)cc1-2`, 128 to 130 °C; for `CC1=CC(OC(=O)c2ccc(N)cc2N)C(O)C(C)(C)CC1=O` (stereo not drawn), 154 to 156 °C.
In turn, `Cc1cc2c(c3ccc(=O)[nH]c13)OC(CSCCN)C2` (stereo not drawn) came in with a melting point of 182 to 184 °C.
The molecule `O=C(NCO)C(Nc1ccccc1[N+](=O)[O-])c1c(Cl)cccc1Cl` (stereo not drawn) had a melting point of 175 °C.
With `Fc1ccc(Cn2c(NC3CCN(CCNc4nccs4)C3)nc3ccccc32)cc1` (stereo not drawn) the figure was 127 °C.
With `O=C(CCl)c1ccc2c(c1)[nH]c1ccccc12` the figure was 203 to 204 °C; with `NS(=O)(=O)c1ccc(-c2cccn2-c2ccc(Cl)cc2Cl)cc1`, 147 to 149 °C; with `C=C(c1cc(C(C)(C)C)cc2c1CCC2(C)C)c1sccc1C(=O)O`, 148 to 150 °C.
With `CC1(c2nn(-c3ccc([N+](=O)[O-])cc3Cl)c(=O)o2)CC1` the figure was 95 to 97 °C; with `Cc1cccc2c1NC(=O)c1cccnc1N2`, 233 to 235 °C.
`Cc1oc(-c2ccccc2)nc1/C=C/c1ccc(C=O)cc1` yielded a melting point of 158 to 159 °C.
For `CCCCCCCOc1ccc(N=Nc2ccc([N+](=O)[O-])cc2)cc1` the value was 82.3 to 83.2 °C.
With `COCCc1nc2c(N)nc3ccccc3c2n1CCCCCCCCNS(C)(=O)=O` the figure was 109 to 110 °C.
The molecule `CN(O)C(=O)NCc1cccs1` yielded a melting point of 106 to 107 °C.
`Cc1cc(C(F)(F)F)c2cccc(O)c2n1`: the melting point was 60 to 61 °C.
For `O=C1C=CC(=O)N1c1cccc(I)c1` the value was 154 to 155 °C.
As for `O=C(NN1CCCCC1)c1nn(-c2ccc(Cl)cc2Cl)c2c1CCc1sc(Br)cc1-2`, the melting point was determined as 145 °C.
For `Cc1oc(-c2ccccc2)nc1C(=O)c1cc2cc(Br)ccc2o1` the value was 212 to 213 °C.
For `CCCOc1cc(C(=O)O)cc(N)c1-c1ccccc1` the value was 101 to 102 °C.
With `CCOCCOC(=O)C1=C(C)NC(CO)=C(C(=O)OCC)C1c1cccc([N+](=O)[O-])c1` (stereo not drawn) the figure was 99 to 100 °C; with `CCOC(=O)Cc1cn(-c2ncnc3ccccc23)c2ccccc12`, 65 to 67 °C.

For the origin of these results see a melting point compilation (Tetko et al.; mined from patent text by program, amines drawn as free bases though some values may be those of a salt).
